Assay results taken from patent publication US4277474A, “Treatment of allergic symptoms with propanone derivatives” (Nippon Zoki Pharmaceutical Co., Ltd., priority 1978, dated 1981).
Where a name gives a salt, the structure may show the parent alone.

What was measured:
[1] = Acute toxicity in mice (LD50, Litchfield-Wilcoxon); settings: mouse, in vivo, ICR male mice
Experimental: Acute toxicity tests were carried out by intraperitoneal or peroral administration of the compound according to the present invention to groups of 10 ICR-strain male mice (weighing 20 g on the average), and each LD50 value was determined by Litchfield-Wilcoxon Method.

[2] = tested on: SRS-A; test: Anti-SRS-A effect on guinea pig's ileum (Magnus method)
Experimental: The anti-SRS-A effect of the compounds according to the present invention on guinea pig's ileum was measured by Magnus method. […] One minute thereafter, the ileum contraction inhibiting rate (%) was measured with use of 1 ml of 80% ethanol solution of SRS-A (150 mg/ml).

[3] = tested on: Peritoneal cavity cells; test: Inhibitory effect on histamine release from sensitized peritoneal cavity cells; format: cell-based, rat (Wistar-strain); parameters: Released histamine, fluorescence intensity / Residual histamine, fluorescence intensity / Total histamine, fluorescence intensity: unit not given here; settings: for Histamine release rate / Released histamine, fluorescence intensity / Residual histamine, fluorescence intensity / Total histamine, fluorescence intensity / Net release rate / inhibition at 10 µM: 0.01 mM; for Net release rate: release not caused by antigen-antibody reaction deducted
Experimental: The inhibitory effect on histamine release of the compounds according to the present invention was investigated as follows. […] These cells were suspended in a phosphoric acid buffer solution (containing 0.1% of gelatin) and each 0.5 ml portion of this suspension was taken in a polyethylene tube. 1 ml each of solutions of various concentrations of test compound and 0.5 ml of 200 μg/ml of ovalbumin solution were added therein. They were incubated for 20 minutes at 37° C. to measure the histamine release rate. The amount of histamine was measured by a modified Shore method using fluorescence.

[4] = tested on: Hartley-strain male guinea pig; test: Experimental atopic asthma in passively sensitized guinea pigs; format: in vivo; settings: 50 mg/kg peroral
Experimental: [Levine, B. B. et al., J. Immunol., 106, 29(1971)] was injected at a dosage of 0.25 ml/guinea pig into the hearts of groups of Hartley-strain male guinea pig (a group consisting of four), each weighing 250-300 g, to make them passively sensitive. […] The rate of breathing and the ratio of expiration time to inspiration time were calculated from the velocity of breathing. As an antigen to induce the reaction 200 μg/kg of benzylpenicilloyl bovine serum albumin [(BPO)23 -BSA] obtained by the method of Levine et al. [Levine et al.; J. Clin. Invest., 47, 556 (1968)] was injected through a cannula into the jugular vein.

[5] = tested on: homo PCA reaction; test: Inhibitory effect on homo PCA reaction in rats; format: in vivo

CC(CN1CCOCC1)C(=O)c1ccc2ccccc2c1 (stereo not drawn) [Example 4, 2-methyl-3-morpholino-β-propionaphthone hydrochloride]
LD50 ([1]; ip, intraperitoneal): 190 mg/kg | LD50 ([1]; po, peroral): 540 mg/kg | ileum contraction inhibiting rate ([2]; 10^-4 g/ml): 96.7 ± 3.33% | ileum contraction inhibiting rate ([2]; 10^-5 g/ml): 36.3 ± 14.19% | ileum contraction inhibiting rate ([2]; 10^-6 g/ml): 13.0 ± 12.50% | Histamine release rate [3]: 44.2% | Released histamine, fluorescence intensity [3]: 212 | Residual histamine, fluorescence intensity [3]: 268 | Total histamine, fluorescence intensity [3]: 480 | Net release rate [3]: 30.3% | inhibition at 10 µM ([3]; Rattus norvegicus): 7.4%

Cc1ccc(C(=O)C(C)CN2CCCCC2)cc1 (stereo not shown) [2,4'-dimethyl-3-piperidinopropiophenone, reference compound]
Histamine release rate [3]: 50.8% | Net release rate [3]: 36.9% | inhibition at 10 µM ([3]; Rattus norvegicus): 0% | inhibition on the variation from the normal values exhibited in the control group (in words) [4]: less inhibitory effect than the compounds according to the present invention | Expiration/inspiration ([4]; 1 min, 1 h before induction): 90.2 ± 4.02% | Rate of breathing ([4]; 1 min, 1 h before induction): 120.6 ± 4.98% | Volume of breathing ([4]; 1 min, 1 h before induction): 123.4 ± 6.52% | Expiration/inspiration ([4]; 3 min, 1 h before induction): 93.9 ± 5.09% | Rate of breathing ([4]; 3 min, 1 h before induction): 98.5 ± 6.55% | Volume of breathing ([4]; 3 min, 1 h before induction): 92.6 ± 8.29% | Expiration/inspiration ([4]; 6 min, 1 h before induction): 94.3 ± 5.34% | Rate of breathing ([4]; 6 min, 1 h before induction): 89.5 ± 3.36% | Volume of breathing ([4]; 6 min, 1 h before induction): 96.7 ± 3.97% | Expiration/inspiration ([4]; 18 min, 1 h before induction): 96.6 ± 2.39% | Rate of breathing ([4]; 18 min, 1 h before induction): 91.3 ± 1.57% | Volume of breathing ([4]; 18 min, 1 h before induction): 90.6 ± 1.52% | Expiration/inspiration ([4]; 30 min, 1 h before induction): 94.8 ± 4.76% | Rate of breathing ([4]; 30 min, 1 h before induction): 93.3 ± 2.80% | Volume of breathing ([4]; 30 min, 1 h before induction): 91.4 ± 6.20% | Expiration/inspiration ([4]; 60 min, 1 h before induction): 93.9 ± 3.98% | Rate of breathing ([4]; 60 min, 1 h before induction): 86.9 ± 6.14% | Volume of breathing ([4]; 60 min, 1 h before induction): 90.9 ± 4.47% | Expiration/inspiration ([4]; 90 min, 1 h before induction): 104.3 ± 6.02% | Rate of breathing ([4]; 90 min, 1 h before induction): 84.6 ± 6.03% | Volume of breathing ([4]; 90 min, 1 h before induction): 91.0 ± 3.34% | Expiration/inspiration ([4]; 130 min, 1 h before induction): 107.0 ± 3.44% | Rate of breathing ([4]; 130 min, 1 h before induction): 87.3 ± 4.44% | Volume of breathing ([4]; 130 min, 1 h before induction): 94.9 ± 4.71% | Expiration/inspiration ([4]; 180 min, 1 h before induction): 109.3 ± 6.26% | Rate of breathing ([4]; 180 min, 1 h before induction): 87.5 ± 6.43% | Volume of breathing ([4]; 180 min, 1 h before induction): 93.8 ± 6.49% | Expiration/inspiration ([4]; before test): 100.0 ± 0.00% | Rate of breathing ([4]; before test): 100.0 ± 0.00% | Volume of breathing ([4]; before test): 100.0 ± 0.00% | inhibition of homo PCA reaction ([5]; 200 mg/Kg peroral): about 40%

CC(CN1CCCCC1)C(=O)c1ccc2ccccc2c1 (stereo not drawn) [Example 2, 2-methyl-3-piperidino-β-propionaphthone hydrochloride]
LD50 ([1]; ip, intraperitoneal): 120 mg/kg | LD50 ([1]; po, peroral): 370 mg/kg | ileum contraction inhibiting rate ([2]; 10^-4 g/ml): 76.0 ± 7.23% | ileum contraction inhibiting rate ([2]; 10^-5 g/ml): 53.7 ± 8.68% | ileum contraction inhibiting rate ([2]; 10^-6 g/ml): 10.0 ± 8.08% | Histamine release rate [3]: 38.6% | Released histamine, fluorescence intensity [3]: 184 | Residual histamine, fluorescence intensity [3]: 292 | Total histamine, fluorescence intensity [3]: 476 | Net release rate [3]: 24.7% | inhibition at 10 µM ([3]; Rattus norvegicus): 24.5% | inhibition at 100 µM ([3]; Rattus norvegicus, 0.1 mM, read-out: Inhibitory effect on histamine release): 60% | Expiration/inspiration ([4]; 1 min, 1 h before induction): 78.4 ± 9.00% | Rate of breathing ([4]; 1 min, 1 h before induction): 120.8 ± 3.19% | Volume of breathing ([4]; 1 min, 1 h before induction): 108.2 ± 1.78% | Expiration/inspiration ([4]; 3 min, 1 h before induction): 108.7 ± 11.36% | Rate of breathing ([4]; 3 min, 1 h before induction): 90.3 ± 3.36% | Volume of breathing ([4]; 3 min, 1 h before induction): 86.7 ± 4.14% | Expiration/inspiration ([4]; 6 min, 1 h before induction): 99.8 ± 4.30% | Rate of breathing ([4]; 6 min, 1 h before induction): 92.2 ± 5.69% | Volume of breathing ([4]; 6 min, 1 h before induction): 90.3 ± 8.26% | Expiration/inspiration ([4]; 18 min, 1 h before induction): 106.5 ± 5.25% | Rate of breathing ([4]; 18 min, 1 h before induction): 91.6 ± 5.71% | Volume of breathing ([4]; 18 min, 1 h before induction): 86.0 ± 8.49% | Expiration/inspiration ([4]; 30 min, 1 h before induction): 100.3 ± 3.41% | Rate of breathing ([4]; 30 min, 1 h before induction): 96.4 ± 4.09% | Volume of breathing ([4]; 30 min, 1 h before induction): 93.7 ± 3.75% | Expiration/inspiration ([4]; 60 min, 1 h before induction): 97.0 ± 3.47% | Rate of breathing ([4]; 60 min, 1 h before induction): 96.2 ± 3.62% | Volume of breathing ([4]; 60 min, 1 h before induction): 96.6 ± 4.92% | Expiration/inspiration ([4]; 90 min, 1 h before induction): 96.5 ± 3.18% | Rate of breathing ([4]; 90 min, 1 h before induction): 94.0 ± 5.23% | Volume of breathing ([4]; 90 min, 1 h before induction): 97.6 ± 7.12% | Expiration/inspiration ([4]; 130 min, 1 h before induction): 106.4 ± 4.19% | Rate of breathing ([4]; 130 min, 1 h before induction): 94.3 ± 6.97% | Volume of breathing ([4]; 130 min, 1 h before induction): 92.1 ± 9.25% | Expiration/inspiration ([4]; 180 min, 1 h before induction): 108.7 ± 6.81% | Rate of breathing ([4]; 180 min, 1 h before induction): 98.2 ± 5.42% | Volume of breathing ([4]; 180 min, 1 h before induction): 97.8 ± 7.28% | Expiration/inspiration ([4]; before test): 100.0 ± 0.00% | Rate of breathing ([4]; before test): 100.0 ± 0.00% | Volume of breathing ([4]; before test): 100.0 ± 0.00% | inhibitory effect on homo PCA reaction, dose dependence (in words) [5]: their effects depended on the dose | inhibition of homo PCA reaction ([5]; 5 mg/Kg intravenous): 62.1%

Cc1ccc(C(=O)C(C)CN2CCCCC2)cc1C.Cl (stereo not shown) [Example 5, 2,3',4'-trimethyl-3-piperidinopropiophenone hydrochloride]
LD50 ([1]; ip, intraperitoneal): 117 mg/kg | LD50 ([1]; po, peroral): 325 mg/kg | ileum contraction inhibiting rate ([2]; 10^-4 g/ml): 100.0 ± 0% | ileum contraction inhibiting rate ([2]; 10^-5 g/ml): 67.7 ± 8.11% | ileum contraction inhibiting rate ([2]; 10^-6 g/ml): 12.3 ± 8.25% | Histamine release rate [3]: 42.9% | Released histamine, fluorescence intensity [3]: 210 | Residual histamine, fluorescence intensity [3]: 280 | Total histamine, fluorescence intensity [3]: 490 | Net release rate [3]: 29.0% | inhibition at 10 µM ([3]; Rattus norvegicus): 11.3% | Expiration/inspiration ([4]; 1 min, 1 h before induction): 77.6 ± 3.68% | Rate of breathing ([4]; 1 min, 1 h before induction): 122.0 ± 16.99% | Volume of breathing ([4]; 1 min, 1 h before induction): 100.5 ± 5.01% | Expiration/inspiration ([4]; 3 min, 1 h before induction): 92.3 ± 2.19% | Rate of breathing ([4]; 3 min, 1 h before induction): 93.7 ± 7.20% | Volume of breathing ([4]; 3 min, 1 h before induction): 86.9 ± 5.99% | Expiration/inspiration ([4]; 6 min, 1 h before induction): 98.7 ± 3.93% | Rate of breathing ([4]; 6 min, 1 h before induction): 93.7 ± 5.80% | Volume of breathing ([4]; 6 min, 1 h before induction): 86.4 ± 6.96% | Expiration/inspiration ([4]; 18 min, 1 h before induction): 97.7 ± 2.62% | Rate of breathing ([4]; 18 min, 1 h before induction): 99.9 ± 4.00% | Volume of breathing ([4]; 18 min, 1 h before induction): 86.3 ± 3.71% | Expiration/inspiration ([4]; 30 min, 1 h before induction): 103.2 ± 1.10% | Rate of breathing ([4]; 30 min, 1 h before induction): 92.5 ± 1.76% | Volume of breathing ([4]; 30 min, 1 h before induction): 86.6 ± 2.44% | Expiration/inspiration ([4]; 60 min, 1 h before induction): 94.3 ± 3.87% | Rate of breathing ([4]; 60 min, 1 h before induction): 97.0 ± 1.81% | Volume of breathing ([4]; 60 min, 1 h before induction): 93.5 ± 6.17% | Expiration/inspiration ([4]; 90 min, 1 h before induction): 96.7 ± 4.58% | Rate of breathing ([4]; 90 min, 1 h before induction): 90.7 ± 6.14% | Volume of breathing ([4]; 90 min, 1 h before induction): 93.5 ± 3.78% | Expiration/inspiration ([4]; 130 min, 1 h before induction): 106.2 ± 5.28% | Rate of breathing ([4]; 130 min, 1 h before induction): 92.9 ± 5.33% | Volume of breathing ([4]; 130 min, 1 h before induction): 87.4 ± 3.03% | Expiration/inspiration ([4]; 180 min, 1 h before induction): 100.1 ± 2.03% | Rate of breathing ([4]; 180 min, 1 h before induction): 97.5 ± 1.82% | Volume of breathing ([4]; 180 min, 1 h before induction): 95.1 ± 3.33% | Expiration/inspiration ([4]; before test): 100.0 ± 0.00% | Rate of breathing ([4]; before test): 100.0 ± 0.00% | Volume of breathing ([4]; before test): 100.0 ± 0.00% | inhibitory effect on homo PCA reaction, dose dependence (in words) [5]: their effects depended on the dose | inhibition of homo PCA reaction ([5]; 200 mg/Kg peroral): about 70%
